Experimental findings from ChEMBL document CHEMBL1201862, “PubChem BioAssay data set” (2004) are described below.

Molecules are shown by their SMILES. Activity calls are given as the source filed them.

The nature of experiment [1]: lymphoblastoid cell cytotoxicity, dose response, cytotoxicity control, plate reader, dry powder, set 2 (AID 624367). The format is functional.
A short description of experiment [2]: cells. As to conditions: A549.
A short description of experiment [3]: cells. To be noted: HEK293.
Experiment [4] addresses T1, Runt-related transcription factor 1/Core-binding factor subunit beta (Homo sapiens, UniProt Q01196+Q13951). As to the kind of experiment: inhibitors of RUNX1 Runt–CBFb-SMMHC binding, biochemical, TR-FRET (AID 1438). The format is protein assay.
For experiment [5], the target named is T1, Runt-related transcription factor 1/Core-binding factor subunit beta. As to the kind of experiment: inhibitors of RUNX1 Runt–CBFb-SMMHC binding, primary screen, biochemical, FRET, Cerulean-Runt, Venus-CBFb-SMMHC, uHTS (AID 1434).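 Also: partner is the CBFb-SMMHC leukemia fusion protein rather than wild-type CBFb.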 The format is protein assay.
Experiment [6] is described as follows: inhibitors of intracellular T. cruzi replication, confirmation, NIH3T3 host cells, beta-gal luminescence (AID 2044).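 Also: intracellular parasites grown in NIH/3T3 mouse fibroblasts as host cells; luminescent beta-galactosidase reporter signal from transgenic T. cruzi replicating inside host cells; inhibitors lower the luminescence signal.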 The format is functional, cell-based.
Experiment [7] can be described thus: cytotoxicity toward NIH3T3 fibroblasts, dose response, counter-screen, cell-based, ATP luminescence, mouse fibroblasts (AID 2010).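 Also: cells exposed to compound for about 90 hours before reading.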 It is filed as functional.
The subject of experiment [8] is Cryptococcus neoformans. Nature of the experiment: Cryptococcus growth inhibition by alamar blue – cell lysis, cherry-picks, replicate tests, mechanism study for C. neoformans antifungal project, dose response (AID 686999). The format is functional, organism-based.
Another experiment deals with HeLa. As to the kind of experiment: HeLa cell cytotoxicity, dose response, cytotoxicity control, ATP luminescence, cherry-pick samples (AID 687004). It is filed as functional, cell-based. As to conditions: Homo sapiens.
A short description of experiment [9]: C. albicans growth with fluconazole, confirmation, fluorescence, retest (AID 2467). The format is functional, cell-based.
Experiment [10] has as its system Cryptococcus neoformans. Nature of the experiment: PubChem AID 686997. The format is functional, organism-based.
Experiment [11] is described as follows: NIH-3T3 fibroblast cytotoxicity, dose response, cytotoxicity control, cell-based, fluorescence, Alamar Blue, secondary assay (AID 2327).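 Also: NIH-3T3 mouse fibroblasts cultured with fluconazole at 8 µg/mL.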 It is filed as functional.
Experiment [12] in a line: HEK293T cytotoxicity, dose response, cytotoxicity control for miR-122 modulator project, cell-based, inhibitor set, cherry-pick, set 2 (AID 720697). It is filed as functional.
Experiment [13] can be described thus: HEK293T cytotoxicity, dose response, cytotoxicity control for miR-122 modulator project, cell-based, activator set, cherry-pick (AID 720690).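 Also: HEK293T human cells scored for general mammalian cytotoxicity.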 It is filed as functional.
The nature of experiment [14]: Cytotoxicity screening for potential Inhibitors of Bacterial Capsule Biogenesis (4). It is filed as functional.
The nature of experiment [15]: NIH3T3 fibroblast cytotoxicity, dose response, cytotoxicity control for PglD inhibitor project, cell-based, CellTiter-Glo luminescence, dry powder (AID 652044). The format is functional.
Another experiment concerns the target Protein Wnt-3a (Mus musculus, UniProt P27467). As to the kind of experiment: SAR analysis of small molecule antagonists of Gli-SUFU in a Wnt3a luminescent reporter assay. It is filed as functional.
Experiment [16] in a line: miR-122 activators in hepatoma reporter cells, dose response, cell-based, Huh7 psiCHECK-miR122, Renilla luciferase, cherry-picked (AID 651956).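 Also: huh7 hepatoma cells stably carrying a psiCHECK-2 miR-122 sensor plasmid; renilla luciferase signal reporting endogenous miR-122 activity after 48 h compound exposure.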 It is filed as functional.
Experiment [17] can be described thus: inhibitors of TNFa-stimulated NF-kB luciferase reporter, dose response, selectivity assay for EBV LMP1 NF-kB inhibitor project, HEK293 LMP1 reporter cells, dry powder, set 2 (AID 624369). The format is functional.
Experiment [18] addresses Dual specificity protein phosphatase 3 (Homo sapiens, UniProt P51452). Nature of the experiment: VHR phosphatase inhibition, dose response, selectivity assay for STEP inhibitor project, biochemical (AID 602374). The format is functional. As to conditions: read-out: IC50_Mean.
Experiment [19] has as its target Tyrosine-protein phosphatase non-receptor type 11 (Homo sapiens, UniProt Q06124). As to the kind of experiment: SHP2 phosphatase inhibition, dose response, selectivity assay for STEP inhibitor project, biochemical (AID 602367). The format is functional. To be noted: read-out: IC50_Mean.
In experiment [20] the target is T2, Small ubiquitin-related modifier 1 (Homo sapiens, UniProt P63165). As to the kind of experiment: inhibitors of SUMO1 partner interactions, dose response, biochemical, FRET (AID 624383). It is filed as functional. As to conditions: read-out: IC50_Mean.
T2 sequence (P63165 whole entry): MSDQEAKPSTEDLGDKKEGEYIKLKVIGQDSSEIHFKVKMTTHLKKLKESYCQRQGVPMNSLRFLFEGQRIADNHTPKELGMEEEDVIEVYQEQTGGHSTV
Experiment [21] concerns the target DNA (cytosine-5)-methyltransferase 1 (Homo sapiens, UniProt P26358). As to the kind of experiment: DNMT1 methyltransferase inhibitors, confirmation, biochemical, fluorescent molecular beacon (AID 602386). The format is functional.
A further experiment has as its target Albumin (Bos taurus, UniProt P02769). As to the kind of experiment: Counterscreen for inhibitors of T-cell receptor (TCR)-CD3 interaction: Fluorescence-based biochemical high throughput dose response assay to identify inhibitors of T-cell receptor (TCR)-CD3 interaction using a TAMRA-labeled BSA probe. It is filed as functional.
The target of experiment [22] is T2, Small ubiquitin-related modifier 1. Nature of the experiment: inhibitors of SUMO1 peptide binding, dose response, biochemical, fluorescence polarization, uHTS hits (AID 624382). It is filed as functional. As to conditions: read-out: IC50_Mean.
Experiment [23] addresses Tyrosine-protein phosphatase non-receptor type 5 (Homo sapiens, UniProt P54829). As to the kind of experiment: STEP phosphatase inhibitors, confirmation, biochemical, fluorescence intensity, uHTS hits (AID 602372). It is filed as functional. To be noted: read-out: IC50_Mean.
Experiment [24] is described as follows: CFTR ΔF508 corrector activity in bronchial cells, dose response, human bronchial epithelial cells, plate reader, cherry-pick, two tests (AID 743267). It is filed as functional, cell-based.
Experiment [25] can be described thus: non-specific cell cytotoxicity, dose response, cytotoxicity control for PAX8 inhibitor project, plate reader, dry powder samples (AID 743021). It is filed as functional, cell-based.
Experiment [26] is described as follows: NIH:OVCAR-3 ovarian cancer cell cytotoxicity, dose response, PAX8 inhibitor project, plate reader, dry powder samples (AID 743044). The format is functional, cell-based.
Experiment [27] in a line: cytotoxicity in OVCAR8 ovarian cancer cells, dose response, PAX8 project, cell-based, plate reader, dry powder samples (AID 743197). As to conditions: OVCAR-8. The format is functional.
The next experiment deals with Paired box protein Pax-8 (Homo sapiens, UniProt Q06710). As to the kind of experiment: inhibitors of PAX8-driven TPO luciferase reporter, dose response, RMG-I cells, cherry-pick (AID 687027).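 Also: luciferase reporter driven by Pax8 target thyroperoxidase promoter measured by SteadyGlo luminescence.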 It is filed as functional, cell-based.
Experiment [28] is described as follows: cytotoxicity in COV434 cells, dose response, cytotoxicity control for PAX8 inhibitor project, cell-based, plate reader, dry powder, SA7 (AID 743145). The format is functional.
Experiment [29] is described as follows: cytotoxicity dependent on PAX8, dose response, cell-based, plate reader, dry powder (AID 743049). The format is functional.
The nature of experiment [30]: PAX2 cell-based inhibition, dose response, selectivity assay for PAX8 inhibitor project, plate reader, dry powder samples (AID 743048).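 Also: HEK293 cells carrying a WT1 promoter luciferase reporter driven by expressed Pax2; potency is for inhibition of Pax2 driven reporter signal.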 The format is functional.
Another experiment deals with A549. Nature of the experiment: A549 cell toxicity, dose response, cytotoxicity control, plate reader, cherry-pick samples (AID 687028). It is filed as functional, cell-based. As to conditions: Homo sapiens.

T1 sequence (Q01196 whole entry, the tested form may be a part): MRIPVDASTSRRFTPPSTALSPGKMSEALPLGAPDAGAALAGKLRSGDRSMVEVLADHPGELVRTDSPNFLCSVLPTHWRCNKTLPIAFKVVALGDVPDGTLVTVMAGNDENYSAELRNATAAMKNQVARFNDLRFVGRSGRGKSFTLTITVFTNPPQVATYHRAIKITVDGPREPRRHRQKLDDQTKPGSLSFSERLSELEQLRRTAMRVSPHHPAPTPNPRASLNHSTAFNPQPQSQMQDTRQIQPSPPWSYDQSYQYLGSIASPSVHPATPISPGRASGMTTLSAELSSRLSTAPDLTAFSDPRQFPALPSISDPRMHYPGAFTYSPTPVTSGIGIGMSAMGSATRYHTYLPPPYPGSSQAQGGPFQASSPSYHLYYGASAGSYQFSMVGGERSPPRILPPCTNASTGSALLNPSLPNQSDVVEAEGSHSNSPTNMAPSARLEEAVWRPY
T1 sequence (Q13951 whole entry, the tested form may be a part): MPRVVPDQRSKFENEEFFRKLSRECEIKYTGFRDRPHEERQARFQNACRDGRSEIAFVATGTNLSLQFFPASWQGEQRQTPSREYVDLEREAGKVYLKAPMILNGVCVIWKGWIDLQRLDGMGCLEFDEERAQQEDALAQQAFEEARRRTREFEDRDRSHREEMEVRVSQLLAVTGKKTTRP
Sequence of Tyrosine-protein phosphatase non-receptor type 11 (Q06124 whole entry): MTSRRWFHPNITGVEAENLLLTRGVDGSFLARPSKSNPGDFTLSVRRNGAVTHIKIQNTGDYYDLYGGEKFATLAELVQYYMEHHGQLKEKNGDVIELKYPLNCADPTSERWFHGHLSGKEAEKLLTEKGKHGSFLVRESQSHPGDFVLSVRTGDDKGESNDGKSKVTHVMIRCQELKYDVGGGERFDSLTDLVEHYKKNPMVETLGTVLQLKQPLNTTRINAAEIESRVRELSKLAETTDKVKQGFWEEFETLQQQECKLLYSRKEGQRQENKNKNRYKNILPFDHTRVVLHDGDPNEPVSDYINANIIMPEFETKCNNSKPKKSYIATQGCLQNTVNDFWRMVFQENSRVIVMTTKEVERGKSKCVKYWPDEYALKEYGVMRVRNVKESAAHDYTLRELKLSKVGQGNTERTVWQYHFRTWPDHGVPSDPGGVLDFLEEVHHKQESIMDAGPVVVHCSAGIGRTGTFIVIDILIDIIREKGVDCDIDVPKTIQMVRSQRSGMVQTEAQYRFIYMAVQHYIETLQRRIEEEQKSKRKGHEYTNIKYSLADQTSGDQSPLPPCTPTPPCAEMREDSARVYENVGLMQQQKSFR
Sequence of Protein Wnt-3a (P27467 whole entry): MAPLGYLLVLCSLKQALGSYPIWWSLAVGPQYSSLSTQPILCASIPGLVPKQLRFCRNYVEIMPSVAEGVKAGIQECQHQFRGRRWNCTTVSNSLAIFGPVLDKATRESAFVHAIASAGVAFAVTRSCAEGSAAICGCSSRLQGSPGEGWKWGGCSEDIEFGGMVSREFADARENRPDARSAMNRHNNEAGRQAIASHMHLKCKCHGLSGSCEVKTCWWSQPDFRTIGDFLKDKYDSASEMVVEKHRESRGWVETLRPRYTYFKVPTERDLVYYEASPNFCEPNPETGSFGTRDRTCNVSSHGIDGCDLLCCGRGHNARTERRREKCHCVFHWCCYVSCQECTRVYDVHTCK
Sequence of Tyrosine-protein phosphatase non-receptor type 5 (P54829 whole entry): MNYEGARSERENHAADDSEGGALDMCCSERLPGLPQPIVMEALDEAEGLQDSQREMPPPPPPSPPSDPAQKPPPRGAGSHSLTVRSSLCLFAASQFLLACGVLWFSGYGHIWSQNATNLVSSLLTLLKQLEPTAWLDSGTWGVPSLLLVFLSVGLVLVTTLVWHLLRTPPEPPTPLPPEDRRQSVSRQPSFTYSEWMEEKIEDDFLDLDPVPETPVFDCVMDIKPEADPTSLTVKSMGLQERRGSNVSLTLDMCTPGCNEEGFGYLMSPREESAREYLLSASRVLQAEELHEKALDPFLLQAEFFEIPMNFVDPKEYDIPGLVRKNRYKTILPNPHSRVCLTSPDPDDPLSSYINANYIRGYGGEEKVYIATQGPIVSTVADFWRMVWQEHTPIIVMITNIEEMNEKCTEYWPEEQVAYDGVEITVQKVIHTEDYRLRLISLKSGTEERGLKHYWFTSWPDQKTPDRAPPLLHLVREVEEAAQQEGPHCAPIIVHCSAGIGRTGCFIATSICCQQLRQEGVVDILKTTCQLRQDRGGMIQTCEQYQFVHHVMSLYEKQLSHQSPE
Sequence of Albumin (P02769 whole entry): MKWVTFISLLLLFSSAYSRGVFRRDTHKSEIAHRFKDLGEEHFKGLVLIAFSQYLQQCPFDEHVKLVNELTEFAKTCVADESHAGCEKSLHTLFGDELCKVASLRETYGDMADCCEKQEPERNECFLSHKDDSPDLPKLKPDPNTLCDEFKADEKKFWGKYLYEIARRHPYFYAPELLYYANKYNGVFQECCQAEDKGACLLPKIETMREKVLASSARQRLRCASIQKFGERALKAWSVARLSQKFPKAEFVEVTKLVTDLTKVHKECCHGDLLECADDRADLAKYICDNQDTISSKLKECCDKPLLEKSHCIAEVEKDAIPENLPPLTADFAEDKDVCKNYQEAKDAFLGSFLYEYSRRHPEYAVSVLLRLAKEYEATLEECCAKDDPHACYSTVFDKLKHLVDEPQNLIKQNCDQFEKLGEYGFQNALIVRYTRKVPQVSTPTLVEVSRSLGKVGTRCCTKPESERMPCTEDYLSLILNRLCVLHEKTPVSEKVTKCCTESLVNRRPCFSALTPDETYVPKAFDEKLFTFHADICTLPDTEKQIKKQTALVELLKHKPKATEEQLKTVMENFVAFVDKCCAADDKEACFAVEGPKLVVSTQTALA
Sequence of DNA (cytosine-5)-methyltransferase 1 (P26358 whole entry): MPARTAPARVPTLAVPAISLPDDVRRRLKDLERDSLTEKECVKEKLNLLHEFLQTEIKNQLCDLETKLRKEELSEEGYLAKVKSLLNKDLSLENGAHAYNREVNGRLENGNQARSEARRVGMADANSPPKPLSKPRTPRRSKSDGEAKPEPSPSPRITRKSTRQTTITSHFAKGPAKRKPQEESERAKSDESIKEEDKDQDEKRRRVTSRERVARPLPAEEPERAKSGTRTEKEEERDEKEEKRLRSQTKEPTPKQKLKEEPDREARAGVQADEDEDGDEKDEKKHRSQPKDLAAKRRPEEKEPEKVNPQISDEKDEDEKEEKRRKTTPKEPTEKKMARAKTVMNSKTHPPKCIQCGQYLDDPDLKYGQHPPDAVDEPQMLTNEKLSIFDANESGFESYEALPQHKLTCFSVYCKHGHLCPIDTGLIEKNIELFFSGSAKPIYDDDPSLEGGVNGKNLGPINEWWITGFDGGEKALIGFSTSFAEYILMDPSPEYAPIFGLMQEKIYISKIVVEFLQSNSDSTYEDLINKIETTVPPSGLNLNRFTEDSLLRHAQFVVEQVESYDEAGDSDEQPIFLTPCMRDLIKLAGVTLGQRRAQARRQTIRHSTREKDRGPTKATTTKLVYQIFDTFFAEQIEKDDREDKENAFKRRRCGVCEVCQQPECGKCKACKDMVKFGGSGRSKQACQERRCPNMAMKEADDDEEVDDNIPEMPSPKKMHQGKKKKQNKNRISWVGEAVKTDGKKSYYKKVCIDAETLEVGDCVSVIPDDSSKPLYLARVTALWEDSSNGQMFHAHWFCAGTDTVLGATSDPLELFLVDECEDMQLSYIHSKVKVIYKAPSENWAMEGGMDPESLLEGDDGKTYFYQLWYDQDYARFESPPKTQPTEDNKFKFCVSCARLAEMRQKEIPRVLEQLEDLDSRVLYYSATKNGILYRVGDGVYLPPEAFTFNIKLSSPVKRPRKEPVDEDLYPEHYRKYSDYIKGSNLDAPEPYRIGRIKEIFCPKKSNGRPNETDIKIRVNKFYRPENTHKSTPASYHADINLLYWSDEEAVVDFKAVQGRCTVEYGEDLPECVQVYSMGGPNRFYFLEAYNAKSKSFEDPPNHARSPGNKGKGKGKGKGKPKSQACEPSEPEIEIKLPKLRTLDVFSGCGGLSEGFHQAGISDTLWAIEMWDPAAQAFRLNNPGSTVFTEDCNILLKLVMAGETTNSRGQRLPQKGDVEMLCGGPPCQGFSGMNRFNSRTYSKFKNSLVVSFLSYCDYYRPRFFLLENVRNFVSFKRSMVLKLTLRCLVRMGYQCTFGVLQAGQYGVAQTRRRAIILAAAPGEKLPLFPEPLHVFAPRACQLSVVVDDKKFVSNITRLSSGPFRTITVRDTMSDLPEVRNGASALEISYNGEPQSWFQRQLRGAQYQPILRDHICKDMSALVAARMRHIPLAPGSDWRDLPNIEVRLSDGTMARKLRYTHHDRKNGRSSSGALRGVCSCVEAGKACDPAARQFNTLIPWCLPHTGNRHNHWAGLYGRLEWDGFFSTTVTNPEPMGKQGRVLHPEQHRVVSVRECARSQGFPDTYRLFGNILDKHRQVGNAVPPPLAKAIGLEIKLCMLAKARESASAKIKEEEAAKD
Sequence of Dual specificity protein phosphatase 3 (P51452 whole entry): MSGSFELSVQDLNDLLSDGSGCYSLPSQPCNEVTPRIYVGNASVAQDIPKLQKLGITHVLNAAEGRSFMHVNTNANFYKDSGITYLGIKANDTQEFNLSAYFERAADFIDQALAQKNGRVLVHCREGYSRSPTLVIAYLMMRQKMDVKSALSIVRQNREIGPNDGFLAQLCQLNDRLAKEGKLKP

For `O=C(Nc1ccc(C(F)(F)F)cc1)Nc1ccc2c(c1)[C@@H]1C[C@H](CC(=O)N3CCc4ccccc4C3)O[C@@H](CO)[C@@H]1O2`, the AbsAC35 in [1] came out at 85.24 µM.

Consider `COc1ccc(C2c3ccc(O)cc3Oc3ncn4nc(-c5ccccn5)nc4c32)cc1` (stereo not given), for which the AC50 in the experiment “cells [2]” was > 52 µM (inactive); in the experiment “cells [3]” it was > 24 µM (inactive). Further, the IC50 was > 100 µM (inactive) in [4] and 22.9 µM (active) in experiment [5].

As for `NC(=S)N/N=C/c1ccc(-c2cc(Cl)ccc2Cl)o1`, the 50% effective concentration (EC50) in [6] is 0.627 µM (active); in experiment [7], > 60 µM (not active); in experiment [9], 4.47 µM (active); in [11], 15.4 µM (active). Further, the half-maximal activity concentration (AC50) with Cryptococcus neoformans [8] was 18.1 µM (active); in the experiment with HeLa, 17.6 µM (active); in the experiment on Cryptococcus neoformans [10], 12.2 µM (active).

Regarding `C[C@@H]1CN([C@@H](C)CO)S(=O)(=O)c2ccc(-c3cncnc3)cc2O[C@@H]1CN(C)Cc1ccc(Oc2ccccc2)cc1`, the AC50 in [12] was 22.7 µM (active); in experiment [13], 24.9 µM (active).

For `CC(C)(C)OC(=O)Nc1nc2ccc(C(=O)Nc3ccnc(Cl)c3)cc2s1`, in experiment [14], the CC50 was > 300 µM (inactive).

Take `O=C(C[C@@H]1CC[C@H]2[C@@H](COC[C@H](O)CN2C(=O)Nc2cccc(F)c2)O1)NCc1ccccc1F`: the AC50 in experiment [15] was > 52 µM (inactive).

Turning to `O=C(Nc1cc(N2CCCC2)ncn1)c1ccccc1F`, the IC50 at Protein Wnt-3a is 0.696 µM (active).

Consider `CC(C)c1ccc(NC(=O)C[C@H]2CC[C@H]3[C@@H](COc4ccc(NC(=O)Nc5ccc(F)c(F)c5)cc4C(=O)N3C)O2)cc1`, for which the half-maximal activity concentration (AC50) in experiment [16] is 14.3 µM (active). This molecule also came in with an AbsAC35 in [17] of 91.94 µM.

For the molecule `O=C(N/N=C/c1ccoc1)c1cc(O)cc(O)c1`, the IC50 in experiment [18] is 1.55 µM (active); in experiment [19] it was 0.952 µM (active); in [20], 12.4 µM (active); in experiment [21], 7.09 µM (active); at Albumin, > 94 µM (inactive); in experiment [22], > 66.6 µM (inactive). The IC50 in [23] was 33.9 µM (inactive).

`CCOC(=O)c1[nH]c(C)c(C(=O)C2=C(O)C(=O)N(CCCN3CCOCC3)C2c2cccs2)c1C` (stereo not given): the half-maximal activity concentration (AC50) in experiment [24] is 19.4 µM (active).

On to `C[C@@H]1CCCCO[C@@H](CN(C)C(=O)c2ccccc2)[C@@H](C)CN([C@@H](C)CO)C(=O)c2cc(NC(=O)Nc3ccc(C(F)(F)F)cc3)ccc2O1`, for which the AC50 in [25] was 44.3 µM (active); in [26], 7.75 µM (active); in [27] it was > 70 µM (inactive); at Paired box protein Pax-8, 8.77 µM (active).

Consider `COCC(=O)N1[C@H](CO)[C@H](c2ccc(-c3cccnc3)cc2)[C@@H]1C#N`, for which the figures for the AC50 in [28], in experiment [29] and in [30] were 0.00824 µM (active), > 70 µM (inactive) and > 32 µM (inactive), respectively.

Consider `Cc1ccc2ccc(C(Nc3ccccc3)c3ccccc3)c(O)c2n1` (stereo not given), for which the half-maximal activity concentration (AC50) with A549 is 17.9 µM (active).
